Measured values published in patent publication EP2014281A1, “Use of inhibitors of sirtuins and/or ampk for the preparation of a medicament for the treatment of polyalanine diseases” (INSTITUT NATIONAL DE LA SANTE ET DE LA RECHERCHE MEDICALE …, priority 2007, dated 2009).

Experiments:
[1] = test system: C. elegans transgenics expressing human PABPN1 with 10 or 13 Alas; test: Muscle nuclei loss (MNL) drug assay in transgenic nematodes, counting GFP positive muscle cell nuclei; format: in vivo; conditions: for muscle nuclei loss (MNL) in controls: PABPN1-A10 / control animals; for muscle nuclei loss (MNL) caused by PABPN1-A13 expression: PABPN1-A13 animals, 65 hours at 20°C in liquid culture, maximal achievable rescue 28 %; for genetic dependence of the effect on MNL: PABPN1-A13 animals with null mutation of sir-2.1 (ok434), daf-16 (mu86) or aak-2 (ok524)
Description: Analysis of muscle cells. Muscle cells in transgenic hermaphrodites were examined for loss of nuclei through counting GFP positive cells. Percent rescue was calculated as ((test - control)/control*100). Muscle cells in transgenic hermaphrodites were examined for PABPN1 expression through fluorescent microscopy. Whole animals were permeabilized and stained with the PABPN1 antiserum VEADa-14 (Centre de Recherche du CHUM, Montreal; 1:50), and fluorescent microscopy was conducted on a Zeiss microscope (Axioplan Imaging II). Observations of the structure of body wall muscles in young adult transgenics after Phalloidin-Rhodamin (FluoProbes) staining were performed as previously described^51. ANOVA tests and Tukey's Multiple Comparison Test were used for statistics.
(§1) Drug assays. Synchronized populations of L1 larvae expressing GFP and PABPN1 with 10 or 13 Alas were obtained by hypochlorite extraction. To test for muscle nuclei loss, animals were grown in 96-well microtiter plates in 50 µl liquid culture medium with sodium butyrate, resveratrol, sirtinol or splitomicin for 65 hours at 20°C, transferred to agarose pads on slides, and scored for cell nuclei loss at 10X-63X using a Zeiss fluorescence microscope (Axioplan Imaging II). 60 worms were scored per point and three independent assays performed. To test for motility, the synchronized L1 larvae were grown on NGM plates containing drugs until they became 1-5 day old adults. Animals were transferred to new plates every other day to keep them separate from progeny, then transferred to confluent OP-50.1 bacteria test plates and assessed for the number of whole body bends as described above (see Motility assays).

[2] = test system: C. elegans transgenics expressing human PABPN1 with 10 or 13 Alas; test: Motility drug assay, number of whole body bends; format: in vivo; conditions: for motility in controls: PABPN1-A10 / control animals; for abnormal motility (frequency of body bends) produced by mutant PABPN1: PABPN1-A13 animals, sirtinol and splitomicin at day 5, resveratrol at day 3 of adulthood; for genetic dependence of the effect on abnormal motility: PABPN1-A13 animals with null mutation of sir-2.1 (ok434), daf-16 (mu86) or aak-2 (ok524)
Description: Motility assays. 1-5 day old adult hermaphrodites were laid on confluent OP-50-1. The animals were then scored immediately for whole body bends for a duration of 20 seconds as previously described^23, or photos of the tracks were taken using a 2,5X objective on a Zeiss microscope and their amplitudes measured using the Meta View software. 100 animals were scored per experiment and three independent assays performed. Percent rescue of the body bends phenotype was calculated as ((control - test)/control*100) and percent rescue of the sinusoid wave phenotype as ((test - control)/control*100). ANOVA tests and Tukey's Multiple Comparison Tests were used for statistics.
as §1

non-transfected cells = test: Dose-response experiments for cell toxicity; format: cell-based; conditions: five days, 0.5 µM resveratrol, 2.5 µM sirtinol
Description: (§2) Drug treatment. Resveratrol and Sirtinol were dissolved in DMSO. In the initial cell treatment experiments, we performed dose-response experiments, using non-transfected cells, to define the most appropriate doses to be used for the drugs. […] The drugs or vehicle as a control were applied on transfected cells 24 h post-transfection. Cells (in the 12-well plate) were then incubated for 24 h before analysis using a Leica automated microscope stage.

[3] = test system: COS-7 cells overexpressing GFP-PABPN1 fusion proteins with 0, 10, or 17 Alas; test: Cell survival by live microscopy of GFP positive cells; format: cell-based; conditions: day 5; 0.5 µM resveratrol, 2.5 µM sirtinol
Description: (§3) Cell culture and transfection. Twenty-four hours before transfection, COS-7 cells were seeded in Dulbeco's modified Eagle's medium (DMEM) containing 10% fetal calf serum at a concentration of 2 x 10^5 cells per well in 12-well plates suited for the automated live microscopy. The cells were transfected with plasmid DNA (1 µg) pre-complexed with the Plus reagent and diluted in Lipofectamine reagent according to the manufacturer's instructions. To check the protein expression before and after the drug treatment, parallel plates were prepared for Western blotting.
as §2
Assessment of cell survival. Cell survival was assessed using live microscopy as previously described^12. Briefly, 12-well plates containing transfected cells treated or not treated with drugs were placed on a live stage microscope equipped with a digital camera, CO2 incubation chamber, and a motorized X-Y-axis stage and connected to the Openlab software (Improvision). The microscopic robotic stage allows parallel tracking of multiple fields, both within a single well and in multiple wells. […] The system was set to memorize three different fields of cells (from each separate well) and control the stage return to the same position at pre-fixed intervals. The microscope allowed us to return back to the same point and count the same cells in the field. Cell survival was monitored every 24 h for five consecutive days, with Day 1 corresponding to 24 h post-transfection before the drug treatment. On average, 150 cells per field per construct were counted. Cell viability was assayed by analysis of GFP positive cells. The average of cell survival of each group of cells was scored for the three different chosen fields and percent rescue calculated as ((test - control)/control*100). Three independent experiments were performed. ANOVA tests and Tukey's Multiple Comparison Test were used for statistics.

[4] = test system: COS-7 cells transfected with normal (10 Alas) and mutant (17 Alas) PABPN1; test: Histone acetylation analysis by western blot; format: cell-based; conditions: COS-7 cells expressing normal or mutant PABPN1, 500 µM or 5 mM for the last 24h
Description: as §3
Histone acetylation analysis. COS-7 cells transfected with normal (10 Alas) and mutant (17 Alas) PABPN1 cDNAs were plated for 48h and treated for the last 24h with 500 µM or 5 mM sodium butyrate. Controls included non-butyrate-treated cells. Cells were lysed in 10 mM Tris, 50 mM sodium bisulfite, 1% triton X-100, 10 mM magnesium chloride, 8.6% sucrose, pH 6.5 and a cocktail of proteases inhibitors for 10 min. Proteins were extracted under acidic conditions as described^53. Ten micrograms of whole cell extract were analysed by western blot. […] Signals were quantified using NIH IMAGE 1.62 and t tests used for statistical analysis.

SMILES: O=C1CCc2c(ccc3ccccc23)O1 [splitomicin, 1,2-Dihydro-3H-naphtho[2,1-b]pyran-3-one]
- muscle nuclei loss (MNL) in controls [1]: no effect in controls
- muscle nuclei loss (MNL) caused by PABPN1-A13 expression [1]: rescued the MNL
- motility in controls [2]: no effect in controls
- abnormal motility (frequency of body bends) produced by mutant PABPN1 [2]: rescued the MNL and abnormal motility

SMILES: Oc1ccc(C=Cc2cc(O)cc(O)c2)cc1 [resveratrol]
- muscle nuclei loss (MNL) in controls [1]: no effect in PABPN1-A10 animals
- genetic dependence of the effect on MNL [1]: mediated by sir-2.1 and aak-2
- muscle nuclei loss (MNL) caused by PABPN1-A13 expression [1]: enhanced MNL
- cell toxicity (non-transfected cells): did not cause cell toxicity
- cell survival in cells overexpressing GFP-PABPN1 with 0 and 10 Alas [3]: no effects
- cell survival in mutant PABPN1-A17 cells [3]: slightly decreased cell survival
- genetic dependence of the effect on abnormal motility [2]: daf-16 independent and sir-2.1 and aak-2 dependent
- abnormal motility (frequency of body bends) produced by mutant PABPN1 [2]: enhancement of abnormal motility

SMILES: CCCC(=O)[O-].[Na+] [sodium butyrate]
- muscle nuclei loss (MNL) caused by PABPN1-A13 expression [1]: strong (the maximal achievable rescue is 28 %) rescue
- level of acetylation of histone H3 [4]: increased
- level of acetylation of histone H4 [4]: increased

SMILES: CC(NC(=O)c1ccccc1/N=C/c1c(O)ccc2ccccc12)c1ccccc1 (stereo not shown) [sirtinol, 2-[(2-Hydroxynaphthalen-1-yl-methylene)amino]-N-(1-phenethyl)benzamide]
- genetic dependence of the effect on MNL [1]: dependent on sir-2.1, daf-16 but not aak-2
- muscle nuclei loss (MNL) caused by PABPN1-A13 expression [1]: dose-dependent rescue of MNL
- cell survival in cells overexpressing GFP-PABPN1 with 0 and 10 Alas [3]: no effects
- cell survival in mutant PABPN1-A17 cells [3]: strongly enhanced cell survival
- motility in controls [2]: no effect detected
- genetic dependence of the effect on abnormal motility [2]: dependent on sir-2.1 and daf-16
- abnormal motility (frequency of body bends) produced by mutant PABPN1 [2]: rescued abnormal motility
